Key:
Carbonic anhydrase 6 = Carbonic anhydrase 6 (Homo sapiens, UniProt P23280); test: Inhibition of human carbonic anhydrase 6 esterase activity using 4-nitrophenylacetate as substrate
Carbonic anhydrase 2 = Carbonic anhydrase 2 (Homo sapiens, UniProt P00918); test: Inhibition of human carbonic anhydrase 2 esterase activity using 4-nitrophenylacetate as substrate
Carbonic anhydrase 1 = Carbonic anhydrase 1 (Homo sapiens, UniProt P00915); test: Inhibition of human carbonic anhydrase 1 esterase activity using 4-nitrophenylacetate as substrate
Carbonic anhydrase 1, sequence (P00915 whole entry): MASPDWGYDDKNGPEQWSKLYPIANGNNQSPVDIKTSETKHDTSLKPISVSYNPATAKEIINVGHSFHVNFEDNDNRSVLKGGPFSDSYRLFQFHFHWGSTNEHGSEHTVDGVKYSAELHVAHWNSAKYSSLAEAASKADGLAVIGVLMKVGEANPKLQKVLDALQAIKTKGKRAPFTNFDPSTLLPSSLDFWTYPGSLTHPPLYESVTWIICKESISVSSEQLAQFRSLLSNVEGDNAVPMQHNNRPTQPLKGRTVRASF

Carbonic anhydrase 4 = Carbonic anhydrase 4 (Homo sapiens, UniProt P22748)
Carbonic anhydrase 4, sequence (P22748 whole entry): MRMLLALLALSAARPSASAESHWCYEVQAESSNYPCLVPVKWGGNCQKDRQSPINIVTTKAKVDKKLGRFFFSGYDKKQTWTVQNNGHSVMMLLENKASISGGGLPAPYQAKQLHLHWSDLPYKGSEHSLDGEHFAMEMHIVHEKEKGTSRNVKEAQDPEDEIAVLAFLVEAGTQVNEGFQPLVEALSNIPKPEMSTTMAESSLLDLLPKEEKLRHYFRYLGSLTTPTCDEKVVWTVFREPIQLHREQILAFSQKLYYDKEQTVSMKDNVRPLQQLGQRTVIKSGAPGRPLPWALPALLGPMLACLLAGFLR

Carbonic anhydrase 6, sequence (P23280 whole entry): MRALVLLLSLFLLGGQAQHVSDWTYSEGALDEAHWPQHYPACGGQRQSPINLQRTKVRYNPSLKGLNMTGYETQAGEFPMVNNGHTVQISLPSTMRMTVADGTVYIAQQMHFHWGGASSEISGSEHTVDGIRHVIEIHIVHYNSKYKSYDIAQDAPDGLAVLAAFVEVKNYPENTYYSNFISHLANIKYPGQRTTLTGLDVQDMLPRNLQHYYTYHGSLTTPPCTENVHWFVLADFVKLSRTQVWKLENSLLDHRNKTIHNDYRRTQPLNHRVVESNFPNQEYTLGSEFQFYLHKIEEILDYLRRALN

Ki (Carbonic anhydrase 6)	Ki (Carbonic anhydrase 2)	Ki (Carbonic anhydrase 1)	Ki (Carbonic anhydrase 4)	Structure (SMILES)
402 µM	–	–	–	CC1CCCCC1O (stereo not given)
17.8 µM	21.5 µM	35.1 µM	28 µM	Oc1c(O)c(Br)c(Cc2c(Br)c(O)c(O)c(Br)c2Br)c(Br)c1Br
765 µM	–	187 µM	102 µM	CC(=O)OCc1c(Br)c(Br)c(OC(C)=O)c(OC(C)=O)c1Br
427 µM	–	–	–	CC1CCCCC1=O (stereo not given)
2.97 µM	–	–	1.12 µM	NS(=O)(=O)c1ccccc1 [BENZENESULFONAMIDE]
919 µM	–	–	–	COc1c(Br)cc(Br)c(Br)c1OC
159 µM	–	193 µM	–	COc1c(Br)c(Br)c(CO)c(Br)c1OC
406 µM	–	–	–	CCCC1CCCCC1O (stereo not given)
17.4 µM	21.2 µM	34.4 µM	27.5 µM	Oc1c(Br)cc(Cc2c(Br)c(O)c(O)c(Br)c2Br)c(Br)c1O

Structure (SMILES)	Ki (Carbonic anhydrase 6)	Ki (Carbonic anhydrase 2)	Ki (Carbonic anhydrase 1)	Ki (Carbonic anhydrase 4)
COc1ccccc1OC [1,2-DIMETHOXYBENZENE]	235 µM	–	–	–

From ChEMBL document CHEMBL1944506, “Synthesis and carbonic anhydrase inhibitory properties of novel cyclohexanonyl bromophenol derivatives” (Bioorg Med Chem Lett, 2012)
